Square brackets hold non-standard residues; d marks the D form. Peptide text beside a SMILES is read from it. * marks the point of attachment. Pyrrolidine(2S-propanoyl) = CCC(=O)[C@@H]1CCCN1*; X2 = C#CCCCC[C@H](C)C[C@@H](C)C(=O)*; NMeI = CC[C@H](C)[C@H](NC)C(=O)O; X1 = C#CCCCCCC[C@@H](C)C(=O)*; NMeV = CN[C@H](C(=O)O)C(C)C
Columns and labels:
3T3-L1 = experiment: Cytotoxicity against mouse 3T3-L1 cells assessed as reduction in cell viability at 30 uM in presence of insulin measured after 3 days by MTT assay; format: toxicity, cell-based; conditions: 3t3-l1, 72 h, time 3 day
[1] = Effect on preadipocyte differentiation in mouse 3T3-L1 cells assessed as lipid droplet accumulation at 10 uM in presence of insulin measured after 9 days by Oil Red O staining based assay; format: functional; conditions: time 9 day

SMILES | Activity (3T3-L1) | fold change (FC) [1]
C#CCCCC[C@H](C)C[C@@H](C)C(=O)N(C)[C@H](C(=O)N(C)[C@H](C(=O)N1CCC[C@H]1C(=O)N(C)[C@H](C(=O)N1CCC[C@H]1C(=O)CC)C(C)C)[C@@H](C)CC)C(C)C (X2-[NMeV][NMeI]P[NMeV]-{Pyrrolidine(2S-propanoyl)}) | Non-Toxic | 2.1
C#CCCCCCC[C@@H](C)C(=O)N(C)[C@H](C(=O)N(C)[C@H](C(=O)N1CCC[C@H]1C(=O)N(C)[C@H](C(=O)N1CCC[C@H]1C(=O)CC)C(C)C)[C@@H](C)CC)C(C)C (X1-[NMeV][NMeI]P[NMeV]-{Pyrrolidine(2S-propanoyl)}) | Non-Toxic | 1.9

Source: ChEMBL document CHEMBL5046243, “Odookeanynes A and B, Acetylene-Containing Lipopeptides from an Okeania sp. Marine Cyanobacterium” (J Nat Prod, 2022)
